# Assay results published in a melting point compilation (Tetko et al.; mined from patent text by program, amines drawn as free bases though some values may be those of a salt).
row,Compound,melting point
1,FC(F)(F)c1cccc(-c2cc(C(F)(F)F)n3ncc(-c4ccncc4)c3n2)c1,241 °C
2,Cc1ccc2nc(-c3ccccc3C#N)n(C)c(=O)c2c1,157 to 158 °C
3,COc1cc(O)ccc1OCc1ccccc1,84 °C
4,O=C1CN=C(c2ccccc2F)c2cc(Cl)ccc2N1CC(O)CO (stereo not given),117 to 118 °C
5,CCCCc1nc2c(N)nc3ccccc3c2n1CCCNC(=O)NC1CCCCC1,200 to 201 °C
6,COC(=O)ONC(=N)Nc1ccc(C(=O)O)cc1,174 to 175 °C
7,CCCCCCCCCCCC(=O)N1CCc2nc3ccccc3c(C)c2CC1,100 °C
8,COC1=C(c2ccccc2)C(CCC(=O)O)OC1=O (stereo not given),126 to 127 °C
9,CSC1=Nc2ccccc2C2=NCC(CBr)N12 (stereo not given),162 to 163 °C
10,Clc1cc(I)ccc1CBr,44 to 45.5 °C
11,CSc1nn2c(N(C)C)cc(C)nc2c1S(=O)(=O)c1ccc2ccccc2c1,> 230 °C
12,O=C(O)c1ccccc1C(=O)N1CCN(c2cc3c(cc2F)c(=O)c(C(=O)O)c2sccn23)CC1,277 to 278 °C
13,COc1cc(COc2cc(CO)n(-c3ccccc3)n2)ccc1OCc1nc(-c2ccccc2)oc1C,146 to 147 °C
14,CCCc1c(OCc2ccccc2)ccc2c(=O)cc(/C=C/C(=O)OCC)oc12,140 °C
15,COc1ccc2c(c1)c1c3c(c(-c4ccccc4)cc1n2CCCO)C(=O)NC3=O,241 to 243 °C
16,C(=C\c1cc(/C=C/c2ccccc2OCc2ccccn2)[nH]n1)/c1ccc2[nH]ccc2c1,220 to 223 °C
17,COc1cc(CCC(=O)CC(=O)c2ccc(F)cc2)ccc1O,56 to 57 °C
18,CCCCC(=O)Nc1ccc(Br)c(-n2nc(CC)n(Cc3ccc(-c4ccccc4S(=O)(=O)NC(=O)OC(C)(C)C)cc3F)c2=O)c1,108 to 110 °C
19,CC(=O)SCCC(=O)N1C(C(=O)O)CC(=O)N1c1ccccc1 (stereo not given),144 to 146 °C
20,CC(=O)NCC(C)n1nnnc1S (stereo not given),176 to 178 °C
21,COC(=O)NC(C)(C)c1ccc(CS(=O)(=O)c2ccc(C)c(C)c2)cc1,146 to 149 °C
22,Cc1cccc(C)c1-n1cnc(N)nc1=O,248 to 250 °C
23,CCN(CC)S(=O)(=O)c1cc(Cl)c(Cl)c(Cl)c1S,96 to 99 °C
24,CCCCc1cnc(-c2ccc(N=C=O)cc2)nc1,48 °C
25,CCCCc1c(Cc2ccc(-c3ccccc3C(=O)O)cc2)c(=O)nc2n1CC(=O)N2,220 to 222 °C

row,Compound,melting point
1,Clc1ccccc1C=C(CBr)c1ccccc1,78 °C
2,O=C(Oc1ccc2c(c1)CCCC2)Oc1ccc2c(c1)CCCC2,112 °C
3,CCN(CC)c1nsc(NC(=O)NC)c1C(N)=O,195 to 197 °C
4,Cc1coc2cc(Cl)cc(Cl)c12,45 °C
5,CCCCNC1NC(=O)N(c2ccc(O)cc2)C(=O)N1,263 to 265 °C
6,Cc1oc(-c2ccccc2)nc1COc1cccc(COc2cc(CCC(=O)O)n(-c3ccccc3)n2)c1,137 to 138 °C
7,CC(C)Cn1cnc2c(C(N)=O)nc3ccccc3c21,225 to 226 °C
8,CC(C)(C)[Si](C)(C)OCc1cccc(-c2ccc3nc(Cl)cn3c2)c1,120 to 123 °C
9,CCc1nc(/C=C/c2cn(-c3ccccc3)nc2O)cs1,222 to 224 °C
10,CCOC(=O)C1=C(C)NC(CCn2ccnc2)=C(C(=O)OCC)C1c1ccccc1[N+](=O)[O-] (stereo not given),140 to 141 °C
11,Cc1nc(C#Cc2ccccc2)n(C)c1-c1nc(C2CC2)no1,88 °C
12,COc1ccc(-c2c(Cl)nc(C)nc2NS(=O)(=O)c2ccc(OC)cc2)cc1,152 to 154 °C
13,O=C1Nc2cccc(-c3cccs3)c2/C1=C/c1ccc[nH]1,213 to 214 °C
14,CCCCc1cc2c(C)n(C)nc2c(N)n1,130 to 131 °C
15,O=[N+]([O-])c1ccc2oc(-c3sccc3CBr)nc2c1,146 to 148 °C
16,CCC(C)(C)NC1=NS(=O)(=O)c2sc(Cl)cc2N1,359 to 360 °C
17,Cc1ccc(F)cc1C=S,45 to 47 °C
18,Cc1cc2c(c(C)n1)c(=O)oc1ccccc12,194 to 197 °C
19,Cc1c(Cc2cccnc2)sc2ccc(C(N)=O)cc12,194 to 195 °C
20,NS(=O)(=O)c1ccc(S(=O)(=O)CCCc2ccc(O)cc2)s1,112 to 115 °C
21,Cc1ccc(C)c2cc3ccccc3cc12,70 to 72 °C
22,CN1CC(=O)OC2CCN(C(=O)c3ccc(NC(=O)c4ccccc4Cl)cc3)c3ccccc3C21 (stereo not given),286 to 290 °C
23,CCOC(=O)c1c(S(=O)(=O)Cl)nn2c(C)cc(C)nc12,128 to 130 °C
24,CC(=O)Nc1ccc(S(=O)(=O)NCCN2[C@H](C)Cc3ccsc3[C@@H]2C)cc1 (relative stereo),142 to 144 °C
25,CCCc1c(OCCCCCOc2ccc3ccc(OCC(=O)O)cc3c2CCC(=O)O)ccc2c1OCCC2=O,175 to 178 °C
